Series [1] relates to CD1 mice. In words: Anticonvulsant activity, maximal electroshock seizure (MES) test. It counts as in vivo. Conditions: Mus musculus, po. As to the method:
(§1) The anti-seizure activity of some of the compounds of the present invention was measured using the electroshock test (J. Pharmacol. Exp. Ther. 106:319 (1952)) and the results are shown in Table 3. The spasmolytic activity of the compounds of the present invention was investigated by using e.g., pentetrazole (J. Pharmacol. Exp. Ther. 108:168 (1953)), strychnine (J. Pharmacol. Exp. Ther. 129:75 (1960)), bemegrid, nicotine, bicuculline, 4-aminopyridine and mercapto-propionic acid for inducing the clonic-tonic seizures and lethality. The investigated compounds were administered orally in three doses using 10 male CD1 mice/dose, usually 60 min before the induction of seizures.

In series [2] the test system is AMPA receptors. In words: Inhibition of AMPA induced spreading depression in isolated chicken retina. It counts as cell-based. Conditions: AMPA (5 μM). Here is the method:
(§2) In the first model the spreading depression caused by glutamate agonists (i.e., AMPA or kainate) was studied, while in the second one the transmembrane ion-current induced by the activation of the AMPA/kainate receptors was measured directly.
Inhibition of AMPA Induced “Spreading Depression” in Isolated Chicken Retina—
The AMPA antagonistic effect of the compounds of formula (I) or (II) was studied in the in vitro “spreading depression” model (Sheardown Brain Res. 607:189 (1993)). The AMPA antagonists prolong the latency of the development of the “spreading depression” caused by AMPA (5 μM).

For series [3], the system named is CD1 mice. Description: Anticonvulsant activity, nicotine induced seizures. It counts as in vivo. Conditions: Mus musculus; po. As to the method: as §1
Series [4] deals with CD1 mice. In words: Anticonvulsant activity, 4-aminopyridine induced seizures. The format is in vivo. Conditions: Mus musculus; po.; read-out: 4-AP ED50. As to the method:
as §1

For series [5], the system named is CD1 mice. Description: Anticonvulsant activity, pentetrazole induced seizures. It counts as in vivo. As to conditions: Mus musculus; po.; read-out: Pentetrazol ED50. Here is the method: as §1
Series [6] concerns CD1 mice. In words: Anticonvulsant activity, 3-mercapto-propionic acid induced seizures. It counts as in vivo. As to conditions: Mus musculus; po.; read-out: 3-MPA ED50. Here is the method:
as §1

Series [7] has as its system CD1 mice. In words: Muscle relaxant activity, rotarod test. The format is in vivo. As to conditions: Mus musculus, ip.
Series [8] relates to CD1 mice. In words: Anticonvulsant activity, strychnine induced seizures. The format is in vivo. Conditions: Mus musculus; po.; read-out: Strychnine ED50. As to the method:
as §1

Series [9] concerns CD1 mice. In words: Anticonvulsant activity, bemegride induced seizures. As to conditions: Mus musculus; po.; read-out: Bemegride ED50. The format is in vivo. As to the method: as §1
Series [10] concerns CD1 mice. In words: Muscle relaxant activity, inclined screen test. As to conditions: Mus musculus, ip. The format is in vivo.
Series [11] concerns CD1 mice. In words: Anticonvulsant activity, bicuculline induced seizures. Conditions: Mus musculus; po.; read-out: Bicuculline ED50. It counts as in vivo. As to the method: as §1
The test system of series [12] is AMPA/kainate receptors. Description: Inhibition of AMPA induced whole-cell current in acutely isolated cerebellar Purkinje cells (patch clamp). It counts as cell-based. Conditions: 5 μM AMPA, read-out: Inhibition of the ion-currents caused by 5 μM AMPA, IC50. As to the method:
as §2
The activity of the compounds of the present invention was studied on acutely isolated cerebellar Purkinje cells by measuring the whole-cell current induced by 5 μM AMPA according for example to the method described by Bleakman et al (Neuropharmacology 12:1689 (1996)).

Setting [13] is: 1 h, 60 min before induction, read-out: MES (MES 60′) ED50.

Structures are written as SMILES. Where only a bound is given, the exact number is not on record here.

Turning to `C[C@@H]1Cc2cc3c(cc2C(c2ccc(N)cc2)=NN1c1nncs1)OCO3` [Example 84, (R)-5-(4-Aminophenyl)-8-methyl-7-(1,3,4-thiadiazol-2-yl)-8,9-dihydro-7H-1,3-dioxolo-[4,5-h][2,3]benzodiazepine], the melting point lay in the range of 219 to 220 °C. In series [1] (0.5 h, 30′, read-out: MES 30′ ED50), the ED50 fell in the range of 10 to 15 mg/kg. Moreover, in [1] (setting [13]), the ED50 is 12.5 mg/kg. In addition, the IC50 in series [2] turned out to be 850 nM. The same compound came in with an ED50 in series [3] of 77.2 mg/kg. The ED50 in [4] worked out at 16.6 mg/kg. The ED50 in [5] amounted to 17.1 mg/kg. The ED50 in series [6] came out at 6.8 mg/kg. In series [7], this compound displayed an ED50 of 1.4 mg/kg. In addition, the ED50 in series [8] worked out at 18.2 mg/kg. For the same compound, the ED50 in series [9] amounted to 16.7 mg/kg. Moreover, the ED50 in series [10] is 12.8 mg/kg. Besides, the ED50 in [11] turned out to be 17 mg/kg. Also, the IC50 in [12] was 90 nM.

`Cc1nnc(N2N=C(c3ccc(N)cc3)c3cc4c(cc3C[C@H]2C)OCO4)o1` [Example 102, (R)-5-(4-Aminophenyl)-8-methyl-7-(5-methyl-1,3,4-oxadiazol-2-yl)-8,9-dihydro-7H-1,3-dioxolo-[4,5-h][2,3]benzodiazepine] gave a melting point of 145 to 149 °C. Besides, in series [1] (setting [13]), the ED50 is 13.9 mg/kg. Also, the 50% effect level in series [3] (ED50) was put at a dose of 31.7 mg/kg. Further, the ED50 in series [4] turned out to be 20.4 mg/kg. Besides, in series [5], the ED50 was found to be 35.7 mg/kg. For the same compound, the ED50 in [6] is greater than 50 mg/kg. Further, the ED50 in series [7] was 2.9 mg/kg. Further, in series [8], the ED50 turned out to be 26.7 mg/kg. In addition, the ED50 in [9] came out at 27.9 mg/kg. This compound yielded an ED50 in series [10] of 14.8 mg/kg. The ED50 in series [11] was 25.8 mg/kg.

On to `CCc1nnc(N2N=C(c3ccc(N)cc3)c3cc4c(cc3C[C@H]2C)OCO4)s1` [Example 89, (R)-5-(4-Aminophenyl)-7-(5-ethyl-1,3,4-thiadiazol-2-yl)-8-methyl-8,9-dihydro-7H-1,3-dioxolo-[4,5-h][2,3]benzodiazepine], for which the melting point fell in the range of 142 to 144 °C. Besides, the ED50 in series [1] (setting [13]) was determined as 10.5 mg/kg. Also, in series [3], the 50% effect level (ED50) was put at a dose of 45.9 mg/kg. In [4], the ED50 came out at 14.3 mg/kg. Further, the ED50 in [5] worked out at 11.5 mg/kg. Besides, the ED50 in [6] is greater than 50 mg/kg. For the same compound, the 50% effect level in series [7] (ED50) was put at a dose of 1.7 mg/kg. In series [8], the ED50 worked out at 15.7 mg/kg. In addition, in [9], the ED50 was determined as 11.2 mg/kg. This compound displayed an ED50 in [10] of 4.3 mg/kg. Besides, the ED50 in series [11] turned out to be 17.1 mg/kg.

Values taken from patent publication US20070027143A1, “Novel substituted 2,3-benzodiazepine derivatives” (priority 2003, published 2007).
